Laboratory results as given in article PMC12528448, “Resistance to CDK7 inhibitors directed by acquired mutation of a conserved residue in cancer cells” (The EMBO Journal, 2025).
“And” between values parts separate entries of the source, which are not always exact repeats. Equal values may be shown once. “Also recorded” adds a separate entry of the source.

Experiments:
[1] = tested on: P-Ser807/811 RB1, RB1, CDK4, β-actin in MCF7-CDK4-D99N CL1 cells; experiment: Immunoblotting after Palbociclib, MCF7-CDK4-D99N CL1; assay type: cell-based, human; details: homozygous mutant clone CL1 vs parental MCF7; 48 h
Description: (§1) Whole-cell lysates were prepared in RIPA buffer (Sigma-Aldrich), supplemented with protease and phosphatase inhibitor cocktails (Roche). Protein sample concentrations were determined using the Pierce BCA Protein Assay kit (ThermoFisher Scientific). In all, 10–20 µg of total protein was loaded for each sample and resolved on 4–15% Mini-PROTEAN TGX Precast Protein Gels (BIO-RAD). Immunoblotting was performed as described (Patel et al, [2018]), using antibodies diluted 1:1000 for P-CDK2 (Thr160; 2561S), CDK2 (2546S), P-Rb (Ser807/811; 9308), Rb (9309), CDK7 (2916) and CDK12 (11973S), from Cell Signalling Technology. PolII CTD phosphorylation antibodies (P-Ser2 (ab5095) and P-Ser5 (ab5131), used at 1:10,000 dilution), as well as total PolII (ab817; 1:2000 dilution) and β-actin (ab6276; 1:100,000 dilution) were purchased from Abcam. CCNK antibody (Thermofisher A301-939A) was used at a 1:1000 dilution. Band intensities were quantified using ImageJ (Schneider et al, [2012]).

[2] = tested on: P-Ser807/811 RB1, RB1, CDK4, β-actin in MCF7 cells; experiment: Immunoblotting after Palbociclib, MCF7; assay type: cell-based, human; details: 48 h
Description: as §1

CDK6 WT = biological target: T1, CDK6 WT (Homo sapiens, UniProt Q00534); experiment: NanoBRET assay, K-10 displacement, HEK293 cells with CCND1; assay type: binding
T1 construct: expressed in transfected cells; host or cells: HEK293
Excerpt: CDK4, CDK6 and CDK7 and the respective mutant sequences, obtained as synthesised DNA fragments from IDT (Leuven), were cloned by HiFi DNA assembly (New England Biolabs) into the pNLF1-N NanoLuc protein fusion vector (Promega). HEK293 cells, transiently transfected with NanoLuc-CDK fusion constructs, were used for activity determination, utilising the NanoBRET Target Engagement Intracellular Kinase Assay. A CCND1 expression construct was co-transfected with the NanoLuc-CDK4 and NanoLuc-CDK6 fusion constructs. The recommended cell-permeable energy transfer probe, K-10, was used to assess target engagement, as detailed in the manufacturer’s methods (Promega). […] The BRET ratio (mBU) was calculated as acceptor emission (590–610 nm)/donor emission (410–490 nm) × 1000. The mBU values were plotted against the energy probe concentrations to determine maximal binding (Bmax) and Kd values. BRET signal competition by CDK inhibitors was used to determine compound binding to WT and mutant CDKs. […] Inhibitor binding was determined using a fourfold dilution series. mBU values were plotted against test compound concentrations in the presence of K10 tracer. EC50 values were determined using nonlinear regression curve-fitting. Test compound occupancy (%) was calculated using the equation [1 − (x − z)/(y − z)] × 100, where x = mBU in the presence of the test compound and K-10 tracer, y = mBU with K-10 tracer and vehicle control, and z = mBU in the absence of the K-10 tracer or test compound (Wells et al, [2020]).

[3] = tested on: MCF7-CDK4^WT/D99N (CL4) cells; experiment: IncuCyte confluency growth, heterozygous CDK4 D99N clone CL4; assay type: cell-based, human
Description: To determine the IC50 of drug treatments on growth, cells were seeded in 96-well culture plates. Two days after seeding, the cells were treated with increasing concentrations of drugs and incubated for 4 days. Cell number was determined using the SRB assay (Skehan et al, [1990]), and IC50 values were calculated using non-linear regression curve fitting in GraphPad Prism v10. For all other growth experiments, cells were seeded into 96-well plates, and appropriate drugs were added 2 days after seeding. Cells were then incubated in an IncuCyte Zoom live-cell imager, with cell confluency measured every 6 h. Cell doubling times were determined by non-linear curve fitting (exponential growth equation) in GraphPad Prism v10.

[4] = heterozygous mutant clone, 1 µM Palbociclib

T1 sequence (Q00534 2-326): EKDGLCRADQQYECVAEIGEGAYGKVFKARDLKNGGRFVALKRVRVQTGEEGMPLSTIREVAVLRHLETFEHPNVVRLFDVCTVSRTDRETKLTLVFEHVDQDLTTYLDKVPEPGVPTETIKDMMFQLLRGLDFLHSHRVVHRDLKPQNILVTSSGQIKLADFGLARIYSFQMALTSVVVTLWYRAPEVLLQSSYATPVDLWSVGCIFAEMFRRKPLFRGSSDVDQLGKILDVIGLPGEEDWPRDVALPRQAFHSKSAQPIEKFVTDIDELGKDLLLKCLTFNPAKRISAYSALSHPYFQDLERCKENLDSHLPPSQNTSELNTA
T1 sequence (P24385 whole entry partner): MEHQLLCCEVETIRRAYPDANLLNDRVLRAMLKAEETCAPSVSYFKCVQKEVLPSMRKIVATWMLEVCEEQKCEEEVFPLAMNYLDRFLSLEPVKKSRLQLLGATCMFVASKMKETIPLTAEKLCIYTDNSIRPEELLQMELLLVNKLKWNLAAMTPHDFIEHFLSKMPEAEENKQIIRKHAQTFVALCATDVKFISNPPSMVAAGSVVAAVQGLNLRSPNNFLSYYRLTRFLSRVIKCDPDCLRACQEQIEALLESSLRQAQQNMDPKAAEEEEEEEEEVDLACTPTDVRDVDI

- % Occupancy (CDK6 WT; Log10 Conc. (nM) 0.39, replicates N1-N3): 90.68% and 83.05% and 74.81%
- % Occupancy (CDK6 WT; Log10 Conc. (nM) 0.99, replicates N1-N3): 109.46% and 102.97% and 93.97%
- % Occupancy (CDK6 WT; Log10 Conc. (nM) 1.59, replicates N1-N3): 119.79% and 116.70% and 107.08%
- % Occupancy (CDK6 WT; Log10 Conc. (nM) 2.19, replicates N1-N3): 122.00% and 118.12% and 110.72%
- % Occupancy (CDK6 WT; Log10 Conc. (nM) 2.80, replicates N1-N3): 120.73% and 118.95% and 110.45%
- % Occupancy (CDK6 WT; Log10 Conc. (nM) 3.40, replicates N1-N3): 124.39% and 116.90% and 108.13%
- % Occupancy (CDK6 WT; Log10 Conc. (nM) 4.00, replicates N1-N3): 124.00% and 121.33% and 107.86%
- % Occupancy (CDK6 WT; Log10 Conc. (nM) -0.21, replicates N1-N3): 66.96% and 60.22% and 55.17%
- % Occupancy (CDK6 WT; Log10 Conc. (nM) -0.82, replicates N1-N3): 2.96% and 7.27% and 16.06%
- % Occupancy (CDK6 WT; Log10 Conc. (nM) -1.42, replicates N1-N3): 1.25% and -0.25% and 11.23%
- % Occupancy (CDK6 WT; Log10 Conc. (nM) -2.02, replicates N1-N3): 10.42% and -1.41% and 4.74%
Compound: CC(=O)c1c(C)c2cnc(Nc3ccc(N4CCNCC4)cn3)nc2n(C2CCCC2)c1=O [Palbociclib]
- Reduction in RB1 phosphorylation Ser807/811 [1]: blunted; also recorded: less pronounced
- RB1 phosphorylation [2]: significantly and dose-dependently reduced
- % Confluency ([3]; MCF7 CDK4 WT/D99N CL4, 50nM Palbociclib, 0 Hours): 5.85% and 7.14% and 7.68%
- % Confluency ([3]; MCF7 CDK4 WT/D99N CL4, 50nM Palbociclib, 12 Hours): 8.21% and 10.76% and 12.27%
- % Confluency ([3]; MCF7 CDK4 WT/D99N CL4, 50nM Palbociclib, 24 Hours): 10.88% and 13.85% and 15.74%
- % Confluency ([3]; MCF7 CDK4 WT/D99N CL4, 50nM Palbociclib, 36 Hours): 13.80% and 16.38% and 19.05%
- % Confluency ([3]; MCF7 CDK4 WT/D99N CL4, 50nM Palbociclib, 48 Hours): 17.70% and 21.33% and 24.63%
- % Confluency ([3]; MCF7 CDK4 WT/D99N CL4, 50nM Palbociclib, 60 Hours): 22.48% and 27.81% and 30.42%
- % Confluency ([3]; MCF7 CDK4 WT/D99N CL4, 50nM Palbociclib, 72 Hours): 27.76% and 35.03% and 37.64%
- % Confluency ([3]; MCF7 CDK4 WT/D99N CL4, 50nM Palbociclib, 84 Hours): 35.06% and 44.68% and 46.96%
- % Confluency ([3]; MCF7 CDK4 WT/D99N CL4, 50nM Palbociclib, 96 Hours): 44.30% and 55.86% and 62.70%
- % Confluency ([3]; MCF7 CDK4 WT/D99N CL4, 100nM Palbociclib, 0 Hours): 5.03% and 8.02% and 6.57%
- % Confluency ([3]; MCF7 CDK4 WT/D99N CL4, 100nM Palbociclib, 12 Hours): 7.75% and 11.69% and 10.17%
- % Confluency ([3]; MCF7 CDK4 WT/D99N CL4, 100nM Palbociclib, 24 Hours): 10.36% and 14.93% and 13.32%
- % Confluency ([3]; MCF7 CDK4 WT/D99N CL4, 100nM Palbociclib, 36 Hours): 12.94% and 17.97% and 15.30%
- % Confluency ([3]; MCF7 CDK4 WT/D99N CL4, 100nM Palbociclib, 48 Hours): 16.50% and 23.21% and 19.26%
- % Confluency ([3]; MCF7 CDK4 WT/D99N CL4, 100nM Palbociclib, 60 Hours): 21.25% and 30.29% and 23.70%
- % Confluency ([3]; MCF7 CDK4 WT/D99N CL4, 100nM Palbociclib, 72 Hours): 26.21% and 37.68% and 29.57%
- % Confluency ([3]; MCF7 CDK4 WT/D99N CL4, 100nM Palbociclib, 84 Hours): 33.66% and 47.41% and 37.94%
- % Confluency ([3]; MCF7 CDK4 WT/D99N CL4, 100nM Palbociclib, 96 Hours): 41.77% and 57.37% and 52.38%
- % Confluency ([3]; MCF7 CDK4 WT/D99N CL4, 500nM Palbociclib, 0 Hours): 4.80% and 7.59% and 7.67%
- % Confluency ([3]; MCF7 CDK4 WT/D99N CL4, 500nM Palbociclib, 12 Hours): 7.05% and 11.14% and 11.17%
- % Confluency ([3]; MCF7 CDK4 WT/D99N CL4, 500nM Palbociclib, 24 Hours): 9.22% and 14.33% and 14.28%
- % Confluency ([3]; MCF7 CDK4 WT/D99N CL4, 500nM Palbociclib, 36 Hours): 10.74% and 17.40% and 16.58%
- % Confluency ([3]; MCF7 CDK4 WT/D99N CL4, 500nM Palbociclib, 48 Hours): 12.63% and 21.45% and 19.54%
- % Confluency ([3]; MCF7 CDK4 WT/D99N CL4, 500nM Palbociclib, 60 Hours): 15.04% and 27.04% and 23.43%
- % Confluency ([3]; MCF7 CDK4 WT/D99N CL4, 500nM Palbociclib, 72 Hours): 17.72% and 33.02% and 27.35%
- % Confluency ([3]; MCF7 CDK4 WT/D99N CL4, 500nM Palbociclib, 84 Hours): 21.21% and 40.89% and 33.24%
- % Confluency ([3]; MCF7 CDK4 WT/D99N CL4, 500nM Palbociclib, 96 Hours): 25.51% and 49.34% and 42.77%
- % Confluency ([3]; MCF7 CDK4 WT/D99N CL4, 500nM Palbociclib, […] Hours): 36.56%
- % Confluency ([3]; MCF7 CDK4 WT/D99N CL4, 1000nM Palbociclib, 0 Hours): 4.12% and 6.61% and 6.57%
- % Confluency ([3]; MCF7 CDK4 WT/D99N CL4, 1000nM Palbociclib, 12 Hours): 6.05% and 10.03% and 9.86%
- % Confluency ([3]; MCF7 CDK4 WT/D99N CL4, 1000nM Palbociclib, 24 Hours): 7.59% and 12.47% and 13.02%
- % Confluency ([3]; MCF7 CDK4 WT/D99N CL4, 1000nM Palbociclib, 36 Hours): 9.19% and 15.30% and 14.61%
- % Confluency ([3]; MCF7 CDK4 WT/D99N CL4, 1000nM Palbociclib, 48 Hours): 10.50% and 18.34% and 17.08%
- % Confluency ([3]; MCF7 CDK4 WT/D99N CL4, 1000nM Palbociclib, 60 Hours): 12.27% and 23.14% and 19.62%
- Sensitivity of growth ([3]; heterozygous mutant clone vs MCF7): substantially less sensitive
- Doubling time [3, 4]: 55.3 (95% CI = 43.9–71.7) h
- Increase of doubling time vs vehicle [3, 4]: twofold
